In US12209145B2, “PCSK9 antagonist compounds” (Merck Sharp & Dohme LLC, priority 2018, dated 2025):
pKi: −log10 of the molar value.

How the values were obtained:
[1] = target: T1, PCSK9 (Homo sapiens, UniProt Q8NBP7); assay: PCSK9 Alexa FRET Plus TR-FRET assay (displacement of AlexaFluor647 tagged cyclic peptide Reagent B); type: binding; conditions: 0.5 nM biotinylated PCSK9, 960 nM AF cyclic peptide Reagent B, Ki calculated from IC50 and KD of AF peptide
T1 construct: Biotinylated PCSK9 was obtained commercially; purchased
Experimental: (§1) The following is a description of the assays used to determine activity of compounds of the invention, and any comparator compounds reported, toward PCSK9 antagonism. Biotinylated PCSK9 was obtained commercially.
A solution containing 1 nM biotinylated PCSK9+2.5 nM Lance Streptavidin Europium (Strep-Eu) is made in 50 mM HEPES pH 7.4, 0.15 M NaCl, 5 mM CaCl2, 0.01% BSA, and 0.01% Surfactant P20. A separate solution containing 1920 nM of the AlexaFluor tagged cyclic peptide is made in the same buffer system. An Echo is used to transfer 0.075 ul of compound plus 0.675 ul of DMSO to each well of an assay plate followed by the addition of 15 ul of PCSK9+Stept-Eu and 15 ul of AF peptide. The final assay volume is 30.750 ul containing 0.5 nM PCSK9, 1.25 nM Strep-Eu, and 960 nM AF cyclic peptide. The reaction is incubated at room temperature for at least two hours prior to fluorescence measurements using an Envision Multilabel Reader. IC50 values are determined by fitting data to a sigmoidal dose-response curve using nonlinear regression. Ki is then calculated from the IC50 and the KD of AF cyclic peptide. Counts (B-counts) of the europium-labeled PCSK9 are followed to observe if compounds are adversely affecting PCSK9. A fall off of the B-counts is likely indicates a false positive of inhibition. Data from this procedure is reported as “P=‘numerical value’ (nanomolar)”
Activity data obtained by one or both of the above-described procedures is reported for selected example compounds of the invention in the following format: Example No.: A (standard TR Fret)=‘numerical value’; P (Alexa Fret plus standard TR Fret)=‘numerical value’/, note that all values reported are nanomolar.

[2] = target: T1, PCSK9; assay: PCSK9 Alexa FRET Ultra TR-FRET assay (displacement of AlexaFluor647 tagged cyclic peptide); type: binding; conditions: 0.5 nM biotinylated PCSK9, 960 nM AF cyclic peptide, Ki calculated from IC50 and KD of AF peptide
Experimental: as §1
A solution containing 1 nM biotinylated PCSK9+2.5 nM Lance Streptavidin Europium (Strep-Eu) is made in 50 mM HEPES pH 7.4, 0.15 M NaCl, 5 mM CaCl2, 0.01% BSA, and 0.01% Surfactant P20. A separate solution containing 1920 nM of the AlexaFluor tagged cyclic peptide is made in the same buffer system. An Echo is used to transfer 0.015 ul of compound plus 0.735 ul of DMSO to each well of an assay plate followed by the addition of 15 ul of PCSK9+Stept-Eu and 15 ul of AF peptide. The final assay volume is 30.750 ul containing 0.5 nM PCSK9, 1.25 nM Strep-Eu, and 960 nM AF cyclic peptide. The reaction is incubated at room temperature for at least two hours prior to fluorescence measurements using an Envision Multilabel Reader. IC50 values are determined by fitting data to a sigmoidal dose-response curve using nonlinear regression. Ki is then calculated from the IC50 and the KD of AF cyclic peptide. Counts (B-counts) of the europium-labeled PCSK9 are followed to observe if compounds are adversely affecting PCSK9. A fall off of the B-counts is likely indicates a false positive of inhibition. Data from this procedure is reported as “Ki Ultra=‘numerical value’ (data reported is nanomolar)”

T1 sequence (Q8NBP7 153-692): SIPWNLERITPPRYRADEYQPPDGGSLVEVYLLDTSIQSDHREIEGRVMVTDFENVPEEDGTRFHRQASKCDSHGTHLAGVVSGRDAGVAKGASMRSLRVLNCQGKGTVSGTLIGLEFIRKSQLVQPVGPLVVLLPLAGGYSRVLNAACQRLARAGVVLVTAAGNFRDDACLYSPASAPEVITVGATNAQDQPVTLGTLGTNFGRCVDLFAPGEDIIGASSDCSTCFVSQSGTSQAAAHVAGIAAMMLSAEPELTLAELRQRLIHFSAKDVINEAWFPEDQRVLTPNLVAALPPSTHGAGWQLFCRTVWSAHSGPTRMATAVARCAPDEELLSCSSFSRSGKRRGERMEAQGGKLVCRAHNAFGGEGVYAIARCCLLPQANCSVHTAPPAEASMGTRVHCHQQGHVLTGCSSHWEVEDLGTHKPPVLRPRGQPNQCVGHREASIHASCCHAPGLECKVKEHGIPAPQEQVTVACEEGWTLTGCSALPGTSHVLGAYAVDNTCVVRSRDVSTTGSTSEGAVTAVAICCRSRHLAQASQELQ

Row | pKi ([1]; read-out: Ki Plus) | pKi ([2]; read-out: Ki Ultra) | SMILES | pKi ([1]; Ki Plus) | pKi ([2]; Ki Ultra)
1 | ≥ 11.25 | 11.55 | COc1ccc(C[C@@H]2NC(=O)[C@H]([C@@H](C)O)NC(=O)[C@@H]3[C@@H]4CCN3C(=O)[C@@H]3Cc5cn(c6ccc(F)cc56)CCCCCN(Cc5ccc(cc5)CCNC(=O)[C@]5(C)CCCN5C2=O)C(=O)CCC(=O)N[C@@H](C)C(=O)N[C@H](CNC(=O)CCOCCOCC[N+](C)(C)C)C(=O)N[C@@H](Cc2cccc(c2)CNC(=O)CO4)C(=O)N3)cc1 [Ex-17] | – | –
2 | – | – | COc1ccc(C[C@@H]2NC(=O)[C@H]([C@@H](C)O)NC(=O)[C@@H]3[C@@H]4CCN3C(=O)[C@@H]3Cc5cn(c6ccc(F)cc56)CCCCCCN(Cc5ccc(cc5)CCNC(=O)[C@]5(C)CCCN5C2=O)C(=O)CCCC(=O)N[C@H](CNC(=O)CCOCCOCC[N+](C)(C)C)C(=O)N[C@@H](Cc2cccc(c2)CNC(=O)CO4)C(=O)N3)cc1 [Ex-18] | 10.47 | 9.93
3 | 10.78 | 10.92 | COc1ccc(C[C@@H]2NC(=O)[C@H]([C@@H](C)O)NC(=O)[C@@H]3[C@@H]4CCN3C(=O)[C@@H]3Cc5cn(c6ccc(F)cc56)CCCCCCN(Cc5ccc(cc5)CCNC(=O)[C@]5(C)CCCN5C2=O)C(=O)CCC(=O)N[C@H]2CN(C(=O)CCOCCOCC[N+](C)(C)C)CCCCC(=O)NC[C@@H](NC2=O)C(=O)N[C@@H](Cc2cccc(c2)CNC(=O)CO4)C(=O)N3)cc1 [Ex-19] | – | –
4 | 10.89 | 10.77 | COc1ccc(C[C@@H]2NC(=O)[C@H]([C@@H](C)O)NC(=O)[C@@H]3[C@@H]4CCN3C(=O)[C@@H]3Cc5cn(c6ccc(F)cc56)CCCCCCN(Cc5ccc(cc5)CCNC(=O)[C@]5(C)CCCN5C2=O)C(=O)CCCCC(=O)N[C@H](CNC(=O)CCOCCOCC[N+](C)(C)C)C(=O)N[C@@H](Cc2cccc(c2)CNC(=O)CO4)C(=O)N3)cc1 [Ex-20] | – | –
5 | – | – | COc1ccc(C[C@@H]2NC(=O)[C@H]([C@@H](C)O)NC(=O)[C@@H]3[C@@H]4CCN3C(=O)[C@@H]3Cc5cn(c6ccc(F)cc56)CCCCCCN(Cc5ccc(cc5)CCNC(=O)[C@]5(C)CCCN5C2=O)C(=O)CCCCCC(=O)N[C@H](CNC(=O)CCOCCOCC[N+](C)(C)C)C(=O)N[C@@H](Cc2cccc(c2)CNC(=O)CO4)C(=O)N3)cc1 [Ex-21] | 11.24 | 11.90
6 | 11.03 | 10.82 | COc1ccc(C[C@@H]2NC(=O)[C@H]([C@@H](C)O)NC(=O)[C@@H]3[C@@H]4CCN3C(=O)[C@@H]3Cc5cn(c6ccc(F)cc56)CCCCCCN(Cc5ccc(cc5)CCNC(=O)[C@]5(C)CCCN5C2=O)C(=O)CCC(=O)N[C@@H](CNC(=O)CCOCCOCC[N+](C)(C)C)C(=O)N[C@H](C)C(=O)N[C@@H](Cc2cccc(c2)CNC(=O)CO4)C(=O)N3)cc1 [Ex-22] | – | –
7 | 11.03 | 11.62 | COc1ccc(C[C@@H]2NC(=O)[C@H]([C@@H](C)O)NC(=O)[C@@H]3[C@@H]4CCN3C(=O)[C@@H]3Cc5cn(c6ccc(F)cc56)CCCCCCN(Cc5ccc(cc5)CCNC(=O)[C@]5(C)CCCN5C2=O)C(=O)CCC(=O)N[C@@H](C)C(=O)N[C@H](CNC(=O)CCC(=O)NC2OC(CO)C(O)C(O)C2O)C(=O)N[C@@H](Cc2cccc(c2)CNC(=O)CO4)C(=O)N3)cc1 (stereo partly drawn) [Ex-23] | – | –
8 | ≥ 11.25 | 11.56 | COc1ccc(C[C@@H]2NC(=O)[C@H]([C@@H](C)O)NC(=O)[C@@H]3C4CCN3C(=O)[C@@H]3Cc5cn(c6ccc(F)cc56)CCCCN(Cc5ccc(cc5)CCNC(=O)[C@]5(C)CCCN5C2=O)C(=O)CCCCCC(=O)N[C@H](CNC(=O)CCC(=O)NC2OC(CO)C(O)C(O)C2O)C(=O)N[C@@H](Cc2cccc(c2)CNC(=O)CO4)C(=O)N3)cc1 (stereo partly drawn) [Ex-26] | – | –
9 | 11.25 | 11.52 | COc1ccc(C[C@@H]2NC(=O)[C@H]([C@@H](C)O)NC(=O)[C@@H]3[C@@H]4CCN3C(=O)[C@@H]3Cc5cn(c6ccc(F)cc56)CCCCN(Cc5ccc(cc5)CCNC(=O)[C@]5(C)CCCN5C2=O)C(=O)CCC(=O)N[C@@H](C)C(=O)N[C@H](CNC(=O)CCC(=O)NC2OC(CO)C(O)C(O)C2O)C(=O)N[C@@H](Cc2cccc(c2)CNC(=O)CO4)C(=O)N3)cc1 (stereo partly drawn) [Ex-27] | – | –
10 | 11.01 | 11.21 | COc1ccc(C[C@@H]2NC(=O)[C@H]([C@@H](C)O)NC(=O)[C@@H]3[C@@H]4CCN3C(=O)[C@@H]3Cc5cn(c6ccc(F)cc56)C/C=C/CN(Cc5ccc(cc5)CCNC(=O)[C@]5(C)CCCN5C2=O)C(=O)CCC(=O)N[C@@H](C)C(=O)N[C@H](CNC(=O)CCOCCOCC[N+](C)(C)C)C(=O)N[C@@H](Cc2cccc(c2)CNC(=O)CO4)C(=O)N3)cc1 [Ex-29] | – | –
11 | – | – | COc1ccc(C[C@@H]2NC(=O)[C@H]([C@@H](C)O)NC(=O)[C@@H]3[C@@H]4CCN3C(=O)[C@@H]3Cc5cn(c6ccccc56)CCCCCCN(Cc5ccc(cc5)CCNC(=O)[C@]5(C)CCCN5C2=O)C(=O)CCC(=O)N[C@@H](C)C(=O)N[C@H](CNC(=O)CCCCC[N+](C)(C)C)C(=O)N[C@@H](Cc2cccc(c2)CNC(=O)CO4)C(=O)N3)cc1 [Ex-35] | 10.33 | 10.07
12 | – | – | COc1ccc(C[C@@H]2NC(=O)[C@H](C)NC(=O)[C@@H]3[C@@H]4CCN3C(=O)[C@@H]3Cc5cn(c6ccc(F)cc56)CCCCCCN(Cc5ccc(cc5)CCNC(=O)[C@]5(C)CCCN5C2=O)C(=O)CCC(=O)N[C@@H](C)C(=O)N[C@H](CNC(=O)CCCCC[N+](C)(C)C)C(=O)N[C@@H](Cc2cccc(c2)CNC(=O)CO4)C(=O)N3)cc1 [Ex-36] | 11.12 | 11.29
13 | – | – | COc1ccc(C[C@@H]2NC(=O)[C@H]([C@@H](C)O)NC(=O)[C@@H]3[C@@H]4CCN3C(=O)[C@@H]3Cc5cn(c6ccc(F)cc56)CCCCC[C@@H](NC(=O)CCC(=O)N[C@@H](C)C(=O)N[C@H](CNC(=O)CCCCC[N+](C)(C)C)C(=O)N[C@@H](Cc5cccc(c5)CNC(=O)CO4)C(=O)N3)c3ccc(cc3)CCNC(=O)[C@]3(C)CCCN3C2=O)cc1 [Ex-38] | 11.04 | 10.85
14 | – | – | COc1ccc(C[C@@H]2NC(=O)[C@H]([C@@H](C)O)NC(=O)[C@@H]3[C@@H]4CCN3C(=O)[C@@H]3Cc5cn(c6ccc(F)cc56)CCCCCOCc5cc(ccc5CNC(=O)CCC(=O)N[C@@H](C)C(=O)N[C@H](CNC(=O)CCCCC[N+](C)(C)C)C(=O)N[C@@H](Cc5cccc(c5)CNC(=O)CO4)C(=O)N3)CCNC(=O)[C@]3(C)CCCN3C2=O)cc1 [Ex-39] | 11.15 | 11.38
15 | – | – | COc1ccc(C[C@@H]2NC(=O)[C@H]([C@@H](C)O)NC(=O)[C@@H]3[C@@H]4CCN3C(=O)[C@@H]3Cc5cn(c6ccc(F)cc56)CCCCOc5cc(cc(c5)CNC(=O)CCC(=O)N[C@@H](C)C(=O)N[C@H](CNC(=O)CCCCC[N+](C)(C)C)C(=O)N[C@@H](Cc5cccc(c5)CNC(=O)CO4)C(=O)N3)CCNC(=O)[C@]3(C)CCCN3C2=O)cc1 [Ex-40] | 9.51 | 9.07
16 | – | – | COc1ccc(C[C@@H]2NC(=O)[C@H]([C@@H](C)O)NC(=O)[C@@H]3[C@@H]4CCN3C(=O)[C@@H]3Cc5cn(c6ccc(F)cc56)CCCCCN(CCOc5ccc(cc5)CCNC(=O)[C@]5(C)CCCN5C2=O)C(=O)CCC(=O)N[C@@H](C)C(=O)N[C@H](CNC(=O)CCCCC[N+](C)(C)C)C(=O)N[C@@H](Cc2cccc(c2)CNC(=O)CO4)C(=O)N3)cc1 [Ex-41] | 11.16 | 11.20
17 | – | – | COc1ccc(C[C@@H]2NC(=O)[C@H]([C@@H](C)O)NC(=O)[C@@H]3[C@@H]4CCN3C(=O)[C@@H]3Cc5cn(c6ccc(F)cc56)CCCCCCN(Cc5cccc(c5)CCNC(=O)[C@]5(C)CCCN5C2=O)C(=O)CCC(=O)N[C@@H](C)C(=O)N[C@H](CNC(=O)CCCCC[N+](C)(C)C)C(=O)N[C@@H](Cc2cccc(c2)CNC(=O)CO4)C(=O)N3)cc1 [Ex-44] | 10.84 | 10.66

Row | SMILES | pKi ([1]; read-out: Ki Plus) | pKi ([2]; read-out: Ki Ultra) | pKi ([1]; Ki Plus) | pKi ([2]; Ki Ultra)
18 | COc1ccc(C[C@@H]2NC(=O)[C@H]([C@@H](C)O)NC(=O)[C@@H]3[C@@H]4CCN3C(=O)[C@@H]3Cc5cn(c6ccc(F)cc56)CCCCCCN(Cc5ccc(cc5)CCNC(=O)[C@]5(C)CCCN5C2=O)C(=O)CCC(=O)N[C@@H](C)C(=O)N[C@H](CNC(=O)CCCCC[N+](C)(C)C)C(=O)N[C@@H](Cc2cccc(c2)CNC(=O)CO4)C(=O)N3)cc1 [Ex-25] | 10.95 | – | – | 11.33
